Experimental data: patent US20130261045A1, “GREEN TEA POLYPHENOL ALPHA SECRETASE ENHANCERS AND METHODS OF USE” (UNIVERSITY OF SOUTH FLORIDA, priority 2005, published 2013)

How the values were obtained:
Aβ generation = experiment: Aβ ELISA, transgenic APPsw mouse-derived primary neuronal cells (Example 1); format: cell-based; conditions: 20 μM, FIG. 1B
Method: Aβ1-40 and 1-42 peptides were analyzed in the conditioned media from SweAPP N2a cells (FIGS. 1A, 1C, 1D) and transgenic APPsw mouse-derived primary neuronal cells (FIG. 1B) by ELISA (n=3 for each condition).
TAPI-1, β and γ-secretase inhibitors were obtained from Calbiochem (San Diego, Calif.). Green tea extract (75% polyphenols) was obtained from the Vitamin Shoppe™ (North Bergen, N.J.).
Cultured cells were lysed in ice-cold-lysis buffer (20 mM Tris, pH 7.5, 150 mM NaCl, 1 mM EDTA, 1 mM EGTA, 1% v/v Triton X-100, 2.5 mM sodium pyropgosphate, 1 mM β-glycerolphosphate, 1 mM Na3VO4, 1 μg/mL leupeptin, 1 mM PMSF) as previously described (Tan et al., 2002). Mouse brains were isolated under sterile conditions on ice and placed in ice-cold lysis buffer. […] Total Aβ1-42 species were detected by acid extraction of brain homogenates in 5 M guanidine buffer (ret), followed by a 1:10 dilution in lysis buffer. Soluble Aβ1-42 was directly detected in cultured cell lysates or brain homogenates prepared with lysis buffer described above by a 1:4 or 1:10 dilution, respectively. Aβ1-42 was quantified in these samples using the Aβ1-42 ELISA kit (BioSource, Camarillo, Calif.) in accordance with the manufacturer's instructions, except that standards included a 0.5 M guanidine buffer. […]

transgenic APPsw mice = experiment: EGCG ICV injection of transgenic APPsw mice (cerebral Aβ, α-secretase activity); format: in vivo; conditions: ICV 10 μg/mouse once; 24 hours
Method: Cultured cells were lysed in ice-cold-lysis buffer (20 mM Tris, pH 7.5, 150 mM NaCl, 1 mM EDTA, 1 mM EGTA, 1% v/v Triton X-100, 2.5 mM sodium pyropgosphate, 1 mM β-glycerolphosphate, 1 mM Na3VO4, 1 μg/mL leupeptin, 1 mM PMSF) as previously described (Tan et al., 2002). Mouse brains were isolated under sterile conditions on ice and placed in ice-cold lysis buffer. Brains were then sonicated on ice for approximately 3 min, allowed to stand for 15 min at 4° C., and centrifuged at 15,000 rpm for 15 min. Total Aβ1-42 species were detected by acid extraction of brain homogenates in 5 M guanidine buffer (ret), followed by a 1:10 dilution in lysis buffer. Soluble Aβ1-42 was directly detected in cultured cell lysates or brain homogenates prepared with lysis buffer described above by a 1:4 or 1:10 dilution, respectively. Aβ1-42 was quantified in these samples using the Aβ1-42 ELISA kit (BioSource, Camarillo, Calif.) in accordance with the manufacturer's instructions, except that standards included a 0.5 M guanidine buffer.
Cultured cells and mouse brain were lysed in ice-cold lysis buffer described above, and an aliquot corresponding to 50 μg of total protein was electrophoretically separated using 16.5% Tris-tricine gels. Electrophoresed proteins were then transferred to PVDF membranes (Bio-Rad), washed in dH2O, and blocked for 1 hour at ambient temperature in Tris-buffered saline (TBS; Bio-Rad) containing 5% (w/v) for non-fat dry milk. […] Densitometric analysis was done using the Fluor-S Multimager™ with Quantity One™ software (Bio-Rad). […] Antibodies used for Western blot included antibody 369 (1:1,000), anti-C-terminal APP antibody (1:500; Chemicon, Temecula, Calif.), BAM-10 (1:1,000; Sigma), 6E10 (1:1,000; Signet) or anti-Actin antibody (1:1,500; as an internal reference control; Roche). α-, β- and γ-secretase activities were quantified in cell lysates and mouse brain homogenates using available kits based on secretase-specific peptides conjugated to fluorogenic receptor molecules (R&D Systems, Minneapolis, Minn.). […]

O=C(O[C@@H]1Cc2c(O)cc(O)cc2O[C@@H]1c1cc(O)c(O)c(O)c1)c1cc(O)c(O)c(O)c1 [EGCG, (−)-epigallocatechin-3-gallate]
reduction of Aβ1-42 generation over control (PBS) (Aβ generation): 40% | elevation of α-secretase cleavage activity in brain (transgenic APPsw mice): 32% | reduction of cerebral soluble Aβ levels (transgenic APPsw mice): 39% | α-secretase cleavage activity in brain (mean ± s.e.m.) (transgenic APPsw mice): 890.29±104.41 fluorescence units/mg of total protein
